Data reported in patent US10358467B2, “Therapeutic targets for cancer progression” (The Regents of the University of California, priority 2015, dated 2019).

B1: His-DAPLE-CT FA: His-DAPLE-CT with F1675A mutation, Gαi3 binding-deficient mutant (protein)
chain: GTAPPYVGVRPCSASPSSEMVTLEEALEESNRSSPTHDTPSCRDDLLSDYFRKASDPPAIGGQPGPPAKKEGAKMPTNFVAPTVKMAAPTSEGRPLKPGQYVKPNFRLTEAEAPPSVAPRQAQPPQSLSLGRPRQAPVPPASHAPASRSASLSRAFSLASADLLRASGPEACKQESPQKLGAPEALGGRETGSHTLQSPAPPSSHSLARERTPLVGKAGSSCQGPGPRSRPLDTRRFSLAPPKEERLAPLHQSATAPAIATAGAGAAAAGSGSNSQLLHFSPAAAPAARTKPKAPPRSGEVATITPVRAGLSLSEGDGVPGQGCSEGLPAKSPGRSPDLAPHLGRALEDCSRGSVSKSSPASPEPGGDPQTVWYEYGCV
modifications: left off: small tags and cut ends

Columns and labels:
[1] = tested on: DLD1 cells; assay: Anchorage-dependent tumor growth assay; format: cell-based, human; conditions: for inhibition of anchorage-dependent tumor growth: DLD1 cells, plastic plates
Protocol: Anchorage-dependent growth was monitored on solid (plastic) surface as described previously (Franken et al, 2006). Briefly, anchorage-dependent growth was monitored on solid (plastic) surface. Approximately ˜1000 DLD1 cells stably expressing various DAPLE constructs were plated in 6-well plates and incubated in 5% CO2 at 37° C. for ˜2 weeks in 0.2% FBS growth media. Colonies were then stained with 0.005% crystal violet for 1 h. The remaining DLD1 cells were lysed and analyzed by immunoblotting to confirm DAPLE construct expression. Each experiment was analyzed in triplicate.

[2] = tested on: Ras-transformed NIH3T3 cells; assay: Transformation assay, colony formation in soft agar; format: cell-based; conditions: NIH3T3 co-expressing HA-KRas G12V
Protocol: Neoplastic transformationin Ras-transformed NIH3T3 fibroblasts was analyzed using standard assays of colony formation in soft agar as described previously (Clark et al, 1995). Low passage NIH3T3 cells (˜5000) stably co-transfected with appropriate myc-DAPLE construct (2 μg cDNA) and HA-Ras G12V (1 μg cDNA) were analyzed for their ability to form tumor foci in soft agar plates. Plates were incubated in 5% CO2 at 37° C. for ˜2 weeks in growth media supplemented with 2% FBS. They were finally incubated with 0.1% (wt/vol)dimethylthiazol-2-yl)2 2,5-diphenyl tetrazolium bromide (MTT; Sigma) in PBS for 1 h to visualize colonies. The remaining NIH3T3 cells not used for this assay were lysed and analyzed for myc-DAPLE and Ha-Ras G12V expression by immunoblotting.

[3] = tested on: DLD1 cells; assay: Anchorage-independent tumor growth assay; format: cell-based, human; conditions: soft agar
Protocol: Anchorage-independent growth of DLD1 cells was analyzed in agar as described previously (Wallert M A, 2007). Briefly, petri plates (60 mm) were pre-layered with 3 ml 1% Bacto agar (Life Technologies) in DMEM containing 10% FBS. Approximately ˜5000 DLD1 cells stably expressing various DAPLE constructs were then plated on top in 3 ml of 0.3% agar-DMEM with 10% FBS. All assays were carried out using three replicate plates at a seeding density of ˜5000 cells/plate. Following overnight incubation in 5% CO2 incubator, 1 ml DMEM supplemented with 2% FBS was added to maintain hydration. After 2 wks of growth, colonies were stained with 0.005% crystal violet/methanol for 1 h, and subsequently photographed by light microscopy. The number of colonies in ˜15-20 randomly-selected fields were counted under 10× magnification. The remaining DLD1 cells were lysed and analyzed by immunoblotting to confirm DAPLE construct expression. Each experiment was analyzed in triplicate.

[4] = tested on: β-Catenin/TCF/LEF pathway in DLD1 7TGP cells; assay: β-Catenin reporter assay (7TGP); format: cell-based, human; conditions: stable expression, starved and stimulated with Wnt5a, versus vector control
Protocol: These assays were carried out using the well-established reporter 7×Tcf-eGFP (7TGP) (Fuerer & Nusse, 2010). Stable cells lines expressing this reporter were generated by lentiviral transduction and subsequent selection using standard procedures. Lentiviral infection and selection were performed according to standard procedures. Briefly, 10 cm plates DLD1 cells at 70% confluency were incubated with media containing 8 μg/mL polybrene and 10 μl of lentivirus for 6 h. After 24 hours post infection, selection of puromycin-resistant clones was initiated by adding the antibiotic at 2 μg/ml final concentration. The resultant DLD1-7TGP stable cells were subsequently transfected with various myc-DAPLE constructs and selected for G418 resistance as described earlier in methods. The DLD1-7TGP cells stably expressing myc-DAPLE were incubated overnight at 0.2% FBS, analyzed by fluorescence microscopy, and photographed prior to lysis. Whole cell lysates samples were then boiled in Laemmli's sample buffer and GFP protein expression was monitored by immunoblotting.

[5] = tested on: NIH3T3 cells; assay: 3D spheroid matrigel invasion assay; format: cell-based; conditions: in response to Wnt5a
Protocol: NIH3T3 cell invasion assay in 3D culture was performed according to the manufacturer's protocol (Trevigen, Cultrex 3D Spheroid BME Cell Invasion Assay, catalog #3500-096-K). Briefly, non-invasive NIH3T3 cells (˜3000 cells) transfected with empty vector (control) or myc-DAPLEconstructs were incubated first in the Spheroid Formation extracellular matrix (ECM) containing 0.2% FBS for 3 days. Invasion matrix was then added and layered on top with media containing FBS. […] Photographs were analyzed and pseudocolored by Image J to reflect cell density.

[6] = molecular target: T1, GST-FZD7R-CT (Homo sapiens, UniProt O75084); assay: GST-FZD7-CT pulldown of His-Gαi3; format: binding; conditions: His-Gαi3 preloaded with GDP, in the presence of DAPLE-CT
T1 construct: the GST-tagged cytoplasmic tail of FZD7R; made in house; host or cells: bacteria (E. coli BL21 (DE3)); plasmid a gift of R. Yao
Protocol: GST-FZD7-CT and GST-PBD constructs were immobilized on glutathione-Sepharose beads directly from bacterial lysates by overnight incubation at 4° C. with constant tumbling. Next morning, GST-FZD7-CT immobilized on glutathione beads were washed and subsequently incubated with His-tagged DAPLE-CT or Gαi3 proteins at 4° C. with constant tumbling. Washes and immunoblotting were performed as previously.

[7] = molecular target: T2, His-Gαi3 (Rattus norvegicus, UniProt P08753); assay: GTPγS binding assay; format: biochemical; conditions: 0-2 μM, 15 min
T2 construct: His; made in house; host or cells: E. coli BL21 (DE3)
Protocol: GTPγS binding was measured using a filter binding method as described previously (Garcia-Marcos et al, 2010; Garcia-Marcos et al, 2011b). His-Gαi3 (100 nM) was preincubated with different concentrations of His-DAPLE-CT (aa 1650-2028) for 15 min at 30° C. in assay buffer [20 mM Na-HEPES, pH 8, 100 mM NaCl, 1 mM EDTA, 25 mM MgCl2, 1 mM DTT, 0.05% (w:v) C12E10]. Reactions were initiated at 30° C. by adding an equal volume of assay buffer containing 1 μM [^35S] GTPγS (˜50 c.p.m/fmol). Duplicate aliquots (25 μl) were removed at different time points, and binding of radioactive nucleotide was stopped by addition of 3 ml, ice-cold wash buffer (20 mM Tris-HCl, pH 8.0, 100 mM NaCl, 25 mM MgCl2). The quenched reactions were rapidly passed through BA-85 nitrocellulose filters (GE Healthcare) and washed with 4 ml wash buffer. Filters were dried and subjected to liquid scintillation counting. To determine the specific nucleotide binding, the background [^35S]GTPγS detected in the absence of G protein was subtracted from each reaction and data expressed as percentage of the [^35S] GTPγS bound by His-Gαi3 in the absence of His-DAPLE-CT.

[8] = molecular target: T3, GST-Gαi3·Gβγ preformed complexes (Rattus norvegicus, UniProt P08753); assay: Gβγ displacement assay; format: binding; conditions: 0.05-1 μM WT or 1 μM F1675A
T3 construct: made in house; host or cells: E. coli BL21 (DE3) for GST-Gαi3; Gβγ endogenous from HEK293T lysate
Protocol: This assay was performed as described previously (Garcia-Marcos et al, 2009). Briefly, GST alone or GST-Gαi3 proteins immobilized on glutathione-agarose beads were incubated overnight at 4° C. with HEK293T cell lysates in binding buffer [50 mM Tris-HCl, pH 7.4, 100 mM NaCl, 0.4% (v:v) NP-40, 10 mM MgCl2, 5 mM EDTA, 2 mM DTT, protease inhibitor cocktail supplemented with 30 μM GDP]. Unbound Gβγ-subunits were washed twice with the same buffer and proteins bound to the glutathione-agarose beads divided into equal aliquots containing ˜5 μg (˜0.4 μM) GST-fusion proteins. Aliquots were incubated with increasing concentrations (0.05-1 μM) of purified His-DAPLE-CT (1650-2028) wild-type or 1 μM His-DAPLE-CT F1675A in binding buffer supplemented with GDP (˜200 μl) for 5 h at 4° C. Glutathione-agarose beads were washed and bound proteins eluted by boiling in Laemmli sample buffer and separated by SDS-PAGE.

[9] = molecular target: T2, His-Gαi3; assay: Steady-state GTPase assay; format: biochemical; conditions: parallel reactions, WT replaced by F1675A
Protocol: Under the experimental conditions of steady-state GTPase assays, GTP hydrolysis occurs as a two-step reaction, i.e., 1) GDP is released from the G protein and exchanged for GTP, and 2) the GTP loaded is hydrolyzed. Nucleotide exchange is the rate limiting step in this process because it is ˜50-100 times slower than GTP hydrolysis by Gαi subunits (Mukhopadhyay & Ross, 2002). Thus, the steady-state GTPase activity reflects the rate of nucleotide exchange, and was performed as described previously (Garcia-Marcos et al, 2010; Garcia-Marcos et al, 2012; Garcia-Marcos et al, 2011b). Briefly, His-Gαi3 (100 nM) was preincubated with different concentrations of His-DAPLE-CT (aa 1650-2028) for 15 min at 30° C. in assay buffer [20 mM Na-HEPES, pH 8, 100 mM NaCl, 1 mM EDTA, 2 mM MgCl2, 1 mM DTT, 0.05% (w:v) C12E10]. GTPase reactions were initiated at 30° C. by adding an equal volume of assay buffer containing 1 μM [γ-^32P]GTP (˜50 c.p.m/fmol). […] Samples were then centrifuged for 10 min at 10,000×g, and 500 μl of the resultant supernatant were scintillation counted to quantify released [^32P]Pi. For the time course experiments, data was expressed as raw c.p.m. For the dose-dependence curve experiments, the background [^32P]Pi detected at 15 min in the absence of G protein was subtracted from each reaction and data expressed as percentage of the Pi produced by His-Gαi3 in the absence of His-DAPLE-CT.

| increase of Gαi3 binding to GST-FZD7R-CT [6] | displacement of Gβγ from pre-assembled complex with GST-Gαi3 [8] | Molecule | inhibition of anchorage-dependent tumor growth [1] | reduction of number of colonies in soft-agar [2] | inhibition of anchorage-independent tumor growth [3] | adherent colonies per well (tumor growth) ([1]; DLD1 cells stably expressing constructs, 2-3 weeks) | eGFP signal (Wnt transcriptional activity) [4] | invasion of matrigel by spheroids [5] | initial rate of nucleotide (GTPγS) binding by His-Gαi3 [7] | acceleration of steady-state GTPase activity diminished versus His-DAPLE-CT WT [9] [%] |
| --- | --- | --- | --- | --- | --- | --- | --- | --- | --- | --- |
|  |  | DAPLE-FA: full length myc-DAPLE with F1675A mutation in the GBA motif, expressed in cells | failed to inhibit | failed to inhibit | enhanced oncogenicity |  |  |  |  |  |
|  |  | DAPLE-WT: myc-tagged full length human DAPLE (SEQ ID NO: 2) expressed in cells from pcDNA 3.1 | ~90% | ~65% | ~50% | can inhibit tumor growth | showed inhibition of eGFP | increase of invasion tracks |  |  |
| not | not | B1 |  |  |  |  |  |  | not significantly affected | > 90 |
